As a reminder, the IC50 is the midpoint of a concentration-inhibition curve.

The structures appear in SMILES notation.

The target of the first assay is T1, mGlyT-1b (Mus musculus, UniProt P28571).
T1 construct: host or cells: Flp-in-CHO
T1 sequence (P28571 1-651 isoform P28571-2): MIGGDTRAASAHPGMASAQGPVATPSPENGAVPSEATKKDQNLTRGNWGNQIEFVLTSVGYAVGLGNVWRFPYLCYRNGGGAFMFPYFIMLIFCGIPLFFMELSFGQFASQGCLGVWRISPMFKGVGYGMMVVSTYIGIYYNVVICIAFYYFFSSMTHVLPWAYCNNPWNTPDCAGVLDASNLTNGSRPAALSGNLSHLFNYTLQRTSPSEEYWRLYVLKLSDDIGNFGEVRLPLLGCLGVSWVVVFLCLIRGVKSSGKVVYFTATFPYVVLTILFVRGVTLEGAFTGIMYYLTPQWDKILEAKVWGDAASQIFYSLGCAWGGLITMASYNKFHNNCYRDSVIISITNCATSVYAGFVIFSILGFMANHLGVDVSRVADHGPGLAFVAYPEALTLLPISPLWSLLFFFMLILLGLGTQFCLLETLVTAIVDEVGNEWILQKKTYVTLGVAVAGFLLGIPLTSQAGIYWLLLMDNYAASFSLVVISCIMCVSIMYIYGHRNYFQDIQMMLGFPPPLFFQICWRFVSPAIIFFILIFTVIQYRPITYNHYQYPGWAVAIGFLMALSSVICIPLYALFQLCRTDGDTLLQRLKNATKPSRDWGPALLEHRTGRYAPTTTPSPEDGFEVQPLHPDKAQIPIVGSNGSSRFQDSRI
Kind of assay: Glycine uptake inhibition assay (mGlyT-1b). The class given is cell-based.
Settings: not given
The method, then: DMEM complete medium: Nutrient mixture F-12 (Gibco Life-technologies), fetal bovine serum (FBS) 5%, (Gibco life technologies), Penicillin/Streptomycin 1% (Gibco life technologies), Hygromycin 0.6 mg/ml (Gibco life technologies), Glutamine 1 mM Gibco life technologies) Uptake buffer (UB): 150 mM NaCl, 10 mM Hepes-Tris, pH 7.4, 1 mM CaCl2, 2.5 mM KCl, 2.5 mM MgSO4, 10 mM (+) D-glucose. Flp-inTM-CHO (Invitrogen Cat n° R758-07) cells stably transfected with mGlyT1b cDNA. Glycine Uptake Inhibition […]) On day 1 mammalian cells, (Flp-inTM-CHO), transfected with […] cDNA, were plated at the density of 40,000 cells/well in complete F-12 medium, without hygromycin in 96-well culture plates. On day 2, the medium was aspirated and the cells were washed twice with uptake buffer (UB). The cells were then incubated for 20 min at 22° C. with either (i) no potential competitor, (ii) 10 mM non-radioactive glycine, (iii) a concentration of a potential inhibitor. A range of concentrations of the potential inhibitor was used to generate data for calculating the concentration of inhibitor resulting in 50% of the effect (e.g. […] The plates were incubated with gentle shaking, and the reaction was stopped by aspiration of the mixture and washing (three times) with ice-cold UB. The cells were lysed with scintillation liquid, shaken 3 hours and the radioactivity in the cells was counted using a scintillation counter.
`C[C@H](Oc1ccc(S(C)(=O)=O)cc1C(=O)N1CCC(COc2ccc(C#N)cc2)C1)C(F)(F)F` (mixture of isomers) [Example 32, rac-4-{1-[5-Methanesulfonyl-2-((S)-2,2,2-trifluoro-1-methyl-ethoxy)-benzoyl]-pyrrolidin-3-ylmethoxy}-benzonitrile] registered an IC50 of 0.21 µM.

Consider `C[C@H](Oc1ccc(S(C)(=O)=O)cc1C(=O)N1CCC(COc2ccc(Cl)cc2)C1)C(F)(F)F` (mixture of isomers) [Example 29, rac-[3-(4-Chloro-phenoxymethyl)-pyrrolidin-1-yl]-[5-methanesulfonyl-2-((S)-2,2,2-trifluoro-1-methyl-ethoxy)-phenyl]-methanone], for which the midpoint of inhibition, the IC50, lay at 0.2 µM.

The same assay, now with this note: [3H]-glycine uptake in Flp-in-CHO cells stably transfected with mGlyT1b cDNA; 20 min preincubation at 22° C.; read-out: IC50 (μM) at GlyT-1.
For `COc1cccc(OCC2CCN(C(=O)c3cc(S(C)(=O)=O)ccc3O[C@@H](C)C(F)(F)F)C2)c1` (mixture of isomers) [Example 37, rac-[5-Methanesulfonyl-2-((S)-2,2,2-trifluoro-1-methyl-ethoxy)-phenyl]-[3-(3-methoxy-phenoxymethyl)-pyrrolidin-1-yl]-methanone], the IC50 was found to be 0.17 µM.

As for `Cc1ccc(OCC2CCN(C(=O)c3cc(S(C)(=O)=O)ccc3O[C@@H](C)C(F)(F)F)C2)cc1` (mixture of isomers) [Example 30, rac-[5-Methanesulfonyl-2-((S)-2,2,2-trifluoro-1-methyl-ethoxy)-phenyl]-(3-p-tolyloxymethyl-pyrrolidin-1-yl)-methanone], the IC50 stood at 0.27 µM.

For `CS(=O)(=O)c1ccc(OC2CCCC2)c(C(=O)N2CCC(Cc3ccc(C(F)(F)F)cc3)C2)c1` (racemic) [Example 16, rac-(2-Cyclopentyloxy-5-methanesulfonyl-phenyl)-[3-(4-trifluoromethyl-benzyl)-pyrrolidin-1-yl]-methanone], the IC50 was 0.32 µM.

With `C[C@H](Oc1ccc(S(C)(=O)=O)cc1C(=O)N1CCC(COc2ccc(-c3ccccc3)cc2)C1)C(F)(F)F` (mixture of isomers) [Example 31, rac-[3-(Biphenyl-4-yloxymethyl)-pyrrolidin-1-yl]-[5-methanesulfonyl-2-((S)-2,2,2-trifluoro-1-methyl-ethoxy)-phenyl]-methanone], the IC50 turned out to be 0.45 µM.

As to `CS(=O)(=O)c1ccc(-c2ccc(F)cc2)c(C(=O)N2CCC(Cc3ccc(C(F)(F)F)cc3)C2)c1` (racemic) [Example 14, rac-(4′-Fluoro-4-methanesulfonyl-biphenyl-2-yl)-[3-(4-trifluoromethyl-benzyl)-pyrrolidin-1-yl]-methanone], the IC50 was found to be 0.5 µM.

Turning to `C[C@H](Oc1ccc(S(C)(=O)=O)cc1C(=O)N1CCC(Cc2ccc(C(F)(F)F)cc2)C1)C(F)(F)F` (mixture of isomers) [Example 11, rac-[5-Methanesulfonyl-2-((S)-2,2,2-trifluoro-1-methyl-ethoxy)-phenyl]-[3-(4-trifluoromethyl-benzyl)-pyrrolidin-1-yl]-methanone], the IC50 is 0.11 µM.

Consider `C[C@H](Oc1ccc(S(C)(=O)=O)cc1C(=O)N1CCC(COc2ccc([N+](=O)[O-])cc2)C1)C(F)(F)F` (mixture of isomers) [Example 33, rac-[5-Methanesulfonyl-2-((S)-2,2,2-trifluoro-1-methyl-ethoxy)-phenyl]-[3-(4-nitro-phenoxymethyl)-pyrrolidin-1-yl]-methanone], for which the IC50 was found to be 0.17 µM.

As to `C[C@H](Oc1ccc(S(C)(=O)=O)cc1C(=O)N1CCC(COc2ccc(OC(F)(F)F)cc2)C1)C(F)(F)F` (mixture of isomers) [Example 35, rac-[5-Methanesulfonyl-2-((S)-2,2,2-trifluoro-1-methyl-ethoxy)-phenyl]-[3-(4-trifluoromethoxy-phenoxymethyl)-pyrrolidin-1-yl]-methanone], the IC50 was found to be 0.13 µM.

As for `CS(=O)(=O)c1ccc(OCC2CCC2)c(C(=O)N2CCC(Cc3ccc(C(F)(F)F)cc3)C2)c1` (racemic) [Example 15, rac-(2-Cyclobutylmethoxy-5-methanesulfonyl-phenyl)-[3-(4-trifluoromethyl-benzyl)-pyrrolidin-1-yl]-methanone], the IC50 amounted to 0.24 µM.

Regarding `C[C@H](Oc1ccc(S(C)(=O)=O)cc1C(=O)N1CCC(COc2ccc(Cl)c(Cl)c2)C1)C(F)(F)F` (mixture of isomers) [Example 36, rac-[3-(3,4-Dichloro-phenoxymethyl)-pyrrolidin-1-yl]-[5-methanesulfonyl-2-((S)-2,2,2-trifluoro-1-methyl-ethoxy)-phenyl]-methanone], the IC50 amounted to 0.13 µM.

For the molecule `C[C@H](Oc1ccc(S(C)(=O)=O)cc1C(=O)N1CCC(c2ccc(C(F)(F)F)cc2)C1)C(F)(F)F` (mixture of isomers) [Example 2, rac-[5-Methanesulfonyl-2-((S)-2,2,2-trifluoro-1-methyl-ethoxy)-phenyl]-[3-(4-trifluoromethyl-phenyl)-pyrrolidin-1-yl]-methanone], the IC50 came out at 0.22 µM.

With `CS(=O)(=O)c1ccc(OCC(F)(F)C(F)(F)F)c(C(=O)N2CCC(Cc3ccc(C(F)(F)F)cc3)C2)c1` (racemic) [Example 13, rac-[5-Methanesulfonyl-2-(2,2,3,3,3-pentafluoro-propoxy)-phenyl]-[3-(4-trifluoromethyl-benzyl)-pyrrolidin-1-yl]-methanone], the IC50 stood at 0.09 µM.

Source of the values: patent US7951836B2, “Substituted phenyl methanone derivatives” (Hoffmann-La Roche Inc., priority 2006, dated 2011).
